Test results taken from patent publication US8968750B2, “Malaria vaccines based on apicomplexan ferlins, ferlin-like proteins and other C2-domain containing proteins” (Ruprecht-Karls-Universität Heidelberg, priority 2009, dated 2015).

Test system: peripheral blood mononuclear cells (PBMC)
Experiment: cultured IFNγ ELISpot over 10 days with PBMCs stimulated with Pf Ferlin epitopes
Assay type: cell-based, human
Method: Each epitope was tested both individually and in pools of epitopes, which is summarised in this figure. Freshly isolated PBMCs from the blood of malaria-exposed and non-exposed (naïve) individuals were stimulated with the Pf Ferlin epitopes. The secretion of IFNγ was analysed by ELISpot. Pf AMA1, a known malarial blood stage antigen, was used as a positive control (FIG. 12B).
In order to investigate the presence of Pf Ferlin-specific T cells in malaria-exposed individuals, T-cell responses to Pf Ferlin peptides (NLLDPLVVV (SEQ ID NO:4), YLYVNIHKI (SEQ ID NO:5), LLLEGNFYL (SEQ ID NO:6), KLIPVNYEL (SEQ ID NO:7), YLYEKQQEL (SEQ ID NO:8), ILIPSLPLI (SEQ ID NO:9)) were tested in semi-immune Kenyan adults in collaboration with Dr. Britta urban at the Kenyan Medical Research Institute-Wellcome Trust Research Programme (KEMRI). All adults are resident in Junju District, about 60 km north of Mombasa at the Kenyan coast. The area has two high transmission seasons but low-level transmission occurs all year round (infectious bites per year:23-53) (Mwangi et al., 2005).
In order to determine the production of antigen-specific IFNγ by activated peripheral blood mononuclear cells (PBMC), cultured ELISpot analysis was carried out over a period of 10 days in malaria-exposed adults and malaria-naïve individuals. […] Furthermore, when studying the production of antigen-specific IFN-γ by activated peripheral blood mononuclear cells (PBMC) in 12 malaria-exposed adults and 5 malaria-naive individuals, Pf Ferlin-specific T cells were detected to at least one peptide in 4 out of 12 and to more than one peptide in 3 out of 12 malaria-exposed adults (Table 2).

Sequence	INFγ response to individual peptide (responder) (Patient Ad)	INFγ response to individual peptide (responder) (Patient Fr)	INFγ response to individual peptide (responder) (Patient JA006)	INFγ response to individual peptide (responder) (Patient JA029)	INFγ response to individual peptide (responder) (Patient JA030)	INFγ response to individual peptide (responder) (Patient JA046)	INFγ response to individual peptide (responder) (Patient JA047)	INFγ response to individual peptide (responder) (Patient JA066)	INFγ response to individual peptide (responder) (Patient JA067)	INFγ response to individual peptide (responder) (Patient JA086)	INFγ response to individual peptide (responder) (Patient JA007)	INFγ response to individual peptide (responder) (Patient JA087)
LLLEGNFYL (listed as Plasmodium falciparum) [Epitope 3]	no (An INFγ response above SFC 500 identified the patient as a responder.)	no (An INFγ response above SFC 500 identified the patient as a responder.)	no (An INFγ response above SFC 500 identified the patient as a responder.)	yes (An INFγ response above SFC 500 identified the patient as a responder.)	no (An INFγ response above SFC 500 identified the patient as a responder.)	no (An INFγ response above SFC 500 identified the patient as a responder.)	no (An INFγ response above SFC 500 identified the patient as a responder.)	no (An INFγ response above SFC 500 identified the patient as a responder.)	no (An INFγ response above SFC 500 identified the patient as a responder.)	yes (An INFγ response above SFC 500 identified the patient as a responder.)	–	–
YLYEKQQEL (listed as Plasmodium falciparum) [Epitope 5]	no (An INFγ response above SFC 500 identified the patient as a responder.)	no (An INFγ response above SFC 500 identified the patient as a responder.)	no (An INFγ response above SFC 500 identified the patient as a responder.)	no (An INFγ response above SFC 500 identified the patient as a responder.)	yes (An INFγ response above SFC 500 identified the patient as a responder.)	no (An INFγ response above SFC 500 identified the patient as a responder.)	no (An INFγ response above SFC 500 identified the patient as a responder.)	–	–	no (An INFγ response above SFC 500 identified the patient as a responder.)	–	–
NLLDPLVVV (listed as Plasmodium falciparum) [Epitope 1]	yes (An INFγ response above SFC 500 identified the patient as a responder.)	no (An INFγ response above SFC 500 identified the patient as a responder.)	no (An INFγ response above SFC 500 identified the patient as a responder.)	yes (An INFγ response above SFC 500 identified the patient as a responder.)	no (An INFγ response above SFC 500 identified the patient as a responder.)	no (An INFγ response above SFC 500 identified the patient as a responder.)	no (An INFγ response above SFC 500 identified the patient as a responder.)	no (An INFγ response above SFC 500 identified the patient as a responder.)	no (An INFγ response above SFC 500 identified the patient as a responder.)	no (An INFγ response above SFC 500 identified the patient as a responder.)	no (An INFγ response above SFC 500 identified the patient as a responder.)	no (An INFγ response above SFC 500 identified the patient as a responder.)
ILIPSLPLI (listed as Plasmodium falciparum) [Epitope 6]	no (An INFγ response above SFC 500 identified the patient as a responder.)	no (An INFγ response above SFC 500 identified the patient as a responder.)	–	no (An INFγ response above SFC 500 identified the patient as a responder.)	yes (An INFγ response above SFC 500 identified the patient as a responder.)	no (An INFγ response above SFC 500 identified the patient as a responder.)	no (An INFγ response above SFC 500 identified the patient as a responder.)	no (An INFγ response above SFC 500 identified the patient as a responder.)	no (An INFγ response above SFC 500 identified the patient as a responder.)	no (An INFγ response above SFC 500 identified the patient as a responder.)	–	–
KLIPVNYEL (listed as Plasmodium falciparum) [Epitope 4]	no (An INFγ response above SFC 500 identified the patient as a responder.)	no (An INFγ response above SFC 500 identified the patient as a responder.)	no (An INFγ response above SFC 500 identified the patient as a responder.)	no (An INFγ response above SFC 500 identified the patient as a responder.)	yes (An INFγ response above SFC 500 identified the patient as a responder.)	no (An INFγ response above SFC 500 identified the patient as a responder.)	no (An INFγ response above SFC 500 identified the patient as a responder.)	no (An INFγ response above SFC 500 identified the patient as a responder.)	no (An INFγ response above SFC 500 identified the patient as a responder.)	yes (An INFγ response above SFC 500 identified the patient as a responder.)	no (An INFγ response above SFC 500 identified the patient as a responder.)	–
YLYVNIHKI (listed as Plasmodium falciparum) [Epitope 2]	no (An INFγ response above SFC 500 identified the patient as a responder.)	no (An INFγ response above SFC 500 identified the patient as a responder.)	no (An INFγ response above SFC 500 identified the patient as a responder.)	yes (An INFγ response above SFC 500 identified the patient as a responder.)	no (An INFγ response above SFC 500 identified the patient as a responder.)	no (An INFγ response above SFC 500 identified the patient as a responder.)	no (An INFγ response above SFC 500 identified the patient as a responder.)	no (An INFγ response above SFC 500 identified the patient as a responder.)	no (An INFγ response above SFC 500 identified the patient as a responder.)	no (An INFγ response above SFC 500 identified the patient as a responder.)	–	–
